Data taken from patent US11358969B2, “Indole AHR inhibitors and uses thereof” (Ikena Oncology, Inc., priority 2017, dated 2022).
pIC50: −log10 of the molar value.

Key:
[1] = Mouse Pharmacokinetic Study (Example 1C); type: in vivo; conditions: mouse, plasma, CD-1 mice; for Vd: read-out: Vdss
Method: Formulations of compounds set forth in Table 4 were administered intravenously or orally via gavage to CD-1 mice. Typically, at 0.167, 0.5, 1, 2, 4, 6, 12, and 24 hours post-dose, blood was collected and processed to plasma by centrifugation and stored at −80° C. until analysis.
Internal standard was added to each sample prior to protein precipitation with acetonitrile. The precipitates were filtered through a Phree phospholipid removal filter plate and the samples were analyzed by LC/MS/MS. A standard curve was prepared in plasma from typically from 1.0 ng/mL to 3000 ng/mL and processed in the same manner as the samples. Sample analysis was typically performed on a suitable LC/MS/MS system fitted with an analytical UPLC column and compounds eluted from the analytical column with a gradient from 30-95% 0.1% formic acid (v/v) in ACN: 0.1% formic acid (v/v) in water. Mass spectrometric detection of test compound and the internal standard was performed by MRM in positive mode. The pharmacokinetics of each compound were analyzed by Phoenix WinNonlin software (Pharsight, St. Louis, Mo.) via non-compartmental analysis.

[2] = target: T1, AHR (UniProt P35869); assay: DRE-Luciferase Reporter Assay (Alternate Method) (Example 1B); type: cell-based, murine or human; conditions: cell line and AHR activating ligand not specified
T1 construct: IC50
T1 sequence (P35869 1-848): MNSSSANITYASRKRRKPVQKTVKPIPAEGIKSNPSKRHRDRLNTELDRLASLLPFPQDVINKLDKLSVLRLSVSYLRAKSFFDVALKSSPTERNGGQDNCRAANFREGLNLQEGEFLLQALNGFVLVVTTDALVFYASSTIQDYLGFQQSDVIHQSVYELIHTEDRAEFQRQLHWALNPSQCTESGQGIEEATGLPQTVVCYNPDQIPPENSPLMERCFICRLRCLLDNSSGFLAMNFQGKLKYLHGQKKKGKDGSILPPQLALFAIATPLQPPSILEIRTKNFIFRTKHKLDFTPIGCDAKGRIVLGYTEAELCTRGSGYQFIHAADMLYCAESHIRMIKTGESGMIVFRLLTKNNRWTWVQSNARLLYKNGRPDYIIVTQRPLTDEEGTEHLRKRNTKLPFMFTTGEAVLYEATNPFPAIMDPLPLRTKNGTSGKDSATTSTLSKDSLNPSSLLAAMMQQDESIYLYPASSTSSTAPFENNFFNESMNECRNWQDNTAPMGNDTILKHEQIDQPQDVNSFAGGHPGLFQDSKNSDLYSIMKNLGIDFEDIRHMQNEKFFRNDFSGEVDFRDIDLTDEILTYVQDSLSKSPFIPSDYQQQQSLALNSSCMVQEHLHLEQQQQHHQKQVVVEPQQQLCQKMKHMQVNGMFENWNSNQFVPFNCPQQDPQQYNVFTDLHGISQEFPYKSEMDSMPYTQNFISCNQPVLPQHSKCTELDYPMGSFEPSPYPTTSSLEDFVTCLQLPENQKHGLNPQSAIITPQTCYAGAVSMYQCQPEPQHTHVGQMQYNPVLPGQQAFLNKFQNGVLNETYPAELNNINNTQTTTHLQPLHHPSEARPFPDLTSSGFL

Compound: CN(C)c1cnn2c(N[C@@H]3CCc4[nH]c5ccccc5c4C3)nc(-c3cncc(F)c3)nc12 [I-129, 2-(5-Fluoro-3-pyridyl)-N8,N8-dimethyl-N4-[(3R)-2,3,4,9-tetrahydro-1H-carbazol-3-yl]pyrazolo[1,5-a][1,3,5]triazine-4,8-diamine]
- bioavailability ([1]; po, 30 mg/kg): 53%
- AUC(0-inf) ([1]; iv, 3 mg/kg): 1620 ng·h/mL
- AUC(0-t) ([1]; iv, 3 mg/kg): 1340 ng·h/mL
- clearance ([1]; iv, 3 mg/kg): 31 mL/min/kg
- half-life ([1]; iv, 3 mg/kg): 14 h
- Vd ([1]; iv, 3 mg/kg): 22 L/kg
- AUC(0-inf) ([1]; po, 30 mg/kg): 7530 ng·h/mL
- AUC(0-t) ([1]; po, 30 mg/kg): 7030 ng·h/mL
- Cmax ([1]; po, 30 mg/kg): 1040 ng/mL
- Tmax ([1]; po, 30 mg/kg): 2 h
- half-life ([1]; po, 30 mg/kg): 6.4 h
- pIC50 [2]: > 6.30

Compound: Cc1cnn2c(N[C@H]3CCc4[nH]ccc4C3)nc(-c3cncc(F)c3)nc12 [I-259a, 2-(5-fluoro-3-pyridyl)-8-methyl-N-[(5S)-4,5,6,7-tetrahydro-1H-indol-5-yl]pyrazolo[1,5-a][1,3,5]triazin-4-amine]
- bioavailability ([1]; po, 30 mg/kg): 3%
- AUC(0-inf) ([1]; iv, 3 mg/kg): 842 ng·h/mL
- AUC(0-t) ([1]; iv, 3 mg/kg): 825 ng·h/mL
- clearance ([1]; iv, 3 mg/kg): 59 mL/min/kg
- half-life ([1]; iv, 3 mg/kg): 1.2 h
- Vd ([1]; iv, 3 mg/kg): 4.7 L/kg
- AUC(0-inf) ([1]; po, 30 mg/kg): 249 ng·h/mL
- AUC(0-t) ([1]; po, 30 mg/kg): 237 ng·h/mL
- Cmax ([1]; po, 30 mg/kg): 82 ng/mL
- Tmax ([1]; po, 30 mg/kg): 0.5 h
- half-life ([1]; po, 30 mg/kg): 1.2 h
- pIC50 [2]: > 6.30

Compound: CC(C)c1cnn2c(N[C@@H]3CCc4[nH]ccc4C3)nc(-c3cncc(F)c3)nc12 [I-137b, 2-(5-fluoro-3-pyridyl)-8-isopropyl-N-[(5R)-4,5,6,7-tetrahydro-1H-indol-5-yl]pyrazolo[1,5-a][1,3,5]triazin-4-amine]
- bioavailability ([1]; po, 30 mg/kg): 28%
- AUC(0-inf) ([1]; iv, 3 mg/kg): 1350 ng·h/mL
- AUC(0-t) ([1]; iv, 3 mg/kg): 1220 ng·h/mL
- clearance ([1]; iv, 3 mg/kg): 37 mL/min/kg
- half-life ([1]; iv, 3 mg/kg): 11.2 h
- Vd ([1]; iv, 3 mg/kg): 16.6 L/kg
- AUC(0-inf) ([1]; po, 30 mg/kg): 3830 ng·h/mL
- AUC(0-t) ([1]; po, 30 mg/kg): 3630 ng·h/mL
- Cmax ([1]; po, 30 mg/kg): 476 ng/mL
- Tmax ([1]; po, 30 mg/kg): 2 h
- half-life ([1]; po, 30 mg/kg): 5.9 h
- pIC50 [2]: > 6.30

Compound: C[C@H](O)c1cnn2c(N[C@@H]3CCc4[nH]c5ccccc5c4C3)nc(-c3cncc(F)c3)nc12 [I-118]
- bioavailability ([1]; po, 30 mg/kg): 3%
- AUC(0-inf) ([1]; iv, 3 mg/kg): 368 ng·h/mL
- AUC(0-t) ([1]; iv, 3 mg/kg): 364 ng·h/mL
- clearance ([1]; iv, 3 mg/kg): 136 mL/min/kg
- half-life ([1]; iv, 3 mg/kg): 0.6 h
- Vd ([1]; iv, 3 mg/kg): 4.9 L/kg
- AUC(0-inf) ([1]; po, 30 mg/kg): 121 ng·h/mL
- AUC(0-t) ([1]; po, 30 mg/kg): 107 ng·h/mL
- Cmax ([1]; po, 30 mg/kg): 41 ng/mL
- Tmax ([1]; po, 30 mg/kg): 1 h
- half-life ([1]; po, 30 mg/kg): 1.9 h

Compound: O=C(c1cnn2c(NCCc3c[nH]c4ccccc34)cc(-c3cncc(F)c3)nc12)N1CCNCC1 [I-58, [5-(5-Fluoro-3-pyridyl)-7-[2-(1H-indol-3-yl)ethylamino]pyrazolo[1,5-a]pyrimidin-3-yl]-piperazin-1-yl-methanone]
- pIC50 [2]: < 5.82

Compound: CN1CCN(C(=O)c2cnn3c(N[C@@H]4CCc5[nH]c6ccccc6c5C4)cc(-c4cncc(F)c4)nc23)CC1 [I-29, [5-(5-Fluoro-3-pyridyl)-7-[[(3R)-2,3,4,9-tetrahydro-1H-carbazol-3-yl]amino]pyrazolo[1,5-a]pyrimidin-3-yl]-(4-methylpiperazin-1-yl)methanone]
- pIC50 [2]: < 5.82

Compound: CC(C)c1cnn2c(N[C@@H]3CCc4[nH]c5ccccc5c4C3)nc(N3CCCCC3)nc12 [I-264, (3R)—N-[8-Isopropyl-2-(1-piperidyl)pyrazolo[1,5-a][1,3,5]triazin-4-yl]-2,3,4,9-tetrahydro-1H-carbazol-3-amine]
- pIC50 [2]: < 5.82

Compound: CC(C)c1cnn2c(N[C@@H]3CCc4[nH]c5ccccc5c4C3)cc(-c3cncnc3)nc12 [I-229, (3R)—N-(3-Isopropyl-5-pyrimidin-5-yl-pyrazolo[1,5-a]pyrimidin-7-yl)-2,3,4,9-tetrahydro-1H-carbazol-3-amine]
- pIC50 [2]: < 5.82

Compound: CN1CCN(C(=O)c2cnn3c(NC4CCc5[nH]c6ccccc6c5C4)nc(-c4cncc(F)c4)nc23)CC1 (centres unmarked) [I-251]
- pIC50 [2]: < 5.82

Compound: Cc1cnn2c(NCCc3c[nH]c4cccnc34)nc(-c3cncc(F)c3)nc12 [I-186, 2-(5-Fluoro-3-pyridyl)-8-methyl-N-[2-(1H-pyrrolo[3,2-b]pyridin-3-yl)ethyl]pyrazolo[1,5-a][1,3,5]triazin-4-amine]
- pIC50 [2]: 6.00 to 6.30

Compound: CC(C)(C)c1cnn2c(N[C@@H]3CCc4[nH]c5ccccc5c4C3)nc(-c3cncc(F)c3)nc12 [I-132, (R)—N-(8-(tert-Butyl)-2-(5-fluoropyridin-3-yl)pyrazolo[1,5-a][1,3,5]triazin-4-yl)-2,3,4,9-tetrahydro-1H-carbazol-3-amine]
- pIC50 [2]: 6.00 to 6.30

Compound: OCc1cnn2c(NCCc3c[nH]c4ccccc34)cc(-c3cncc(F)c3)nc12 [I-197, [5-(5-Fluoro-3-pyridyl)-7-[2-(1H-indol-3-yl)ethylamino]pyrazolo[1,5-a]pyrimidin-3-yl]methanol]
- pIC50 [2]: > 6.30

Compound: N#Cc1cncc(-c2cc(NCCc3c[nH]c4ccccc34)n3nccc3n2)c1 [I-43, 5-[7-[2-(1H-Indol-3-yl)ethylamino]pyrazolo[1,5-a]pyrimidin-5-yl]pyridine-3-carbonitrile]
- pIC50 [2]: 6.00 to 6.30

Compound: CC(C)c1cnn2c(NC3CCc4[nH]c5ccccc5c4C3)nc(-c3ccc4c(c3)OC(F)(F)O4)nc12 (centres unmarked) [I-271]
- pIC50 [2]: < 5.82

Compound: CC(C)c1cnn2c(N[C@@H]3CCc4c([nH]c5ccccc45)C3)nc(-c3cncc(F)c3)nc12 [I-146b]
- pIC50 [2]: < 5.82

Compound: CC(C)n1cnc2c(NCCc3cnc4ccccn34)nc(-c3cncc(F)c3)nc21 [I-15, 2-(5-Fluoro-3-pyridyl)-N-(2-imidazo[1,2-a]pyridin-3-ylethyl)-9-isopropyl-purin-6-amine]
- pIC50 [2]: > 6.30

Compound: OCc1cnn2c(NC[C@@H](O)c3c[nH]c4ccccc34)cc(-c3cncc(F)c3)nc12 [I-144a, (1S)-2-[[5-(5-fluoro-3-pyridyl)-3-(hydroxymethyl)pyrazolo[1,5-a]pyrimidin-7-yl]amino]-1-(1H-indol-3-yl)ethanol]
- pIC50 [2]: 5.82 to 6.00

Compound: Cc1cnn2c(NCCc3ccc(O)cc3)cc(-c3cncc(F)c3)nc12 [I-213, 4-[2-[[5-(5-fluoro-3-pyridyl)-3-methyl-pyrazolo[1,5-a]pyrimidin-7-yl]amino]ethyl]phenol]
- pIC50 [2]: > 6.30

Compound: CC(C)c1cnn2c(N[C@H]3CCc4[nH]c5c(F)cccc5c4C3)cc(-c3cncc(F)c3)nc12 [I-212]
- pIC50 [2]: < 5.82

Compound: CC(C)c1cnn2c(N[C@@H]3CCc4[nH]c5c(F)cc(F)cc5c4C3)nc(-c3cncc(F)c3)nc12 [I-139b, (3R)-6,8-difluoro-N-[2-(5-fluoro-3-pyridyl)-8-isopropyl-pyrazolo[1,5-a][1,3,5]triazin-4-yl]-2,3,4,9-tetrahydro-1H-carbazol-3-amine]
- pIC50 [2]: > 6.30

Compound: Fc1cncc(-c2nc(N[C@@H]3CCc4[nH]c5ccccc5c4C3)n3ccnc3n2)c1 [I-125, (3R)—N-[2-(5-Fluoro-3-pyridyl)imidazo[1,2-a][1,3,5]triazin-4-yl]-2,3,4,9-tetrahydro-1H-carbazol-3-amine]
- pIC50 [2]: < 5.82

Compound: Cc1[nH]c2ccccc2c1CCNc1cc(-c2cncc(F)c2)nc2c(C(C)C)cnn12 [I-89, 5-(5-fluoro-3-pyridyl)-3-isopropyl-N-[2-(2-methyl-1H-indol-3-yl)ethyl]pyrazolo[1,5-a]pyrimidin-7-amine]
- pIC50 [2]: > 6.30

Compound: CC(C)n1cnc2c(NC3Cc4ccc(O)cc4C3)nc(-c3cncc(F)c3)nc21 (centres unmarked) [I-48, 2-[[2-(5-fluoro-3-pyridyl)-9-isopropyl-purin-6-yl]amino]indan-5-ol]
- pIC50 [2]: > 6.30

Compound: CC(C)Oc1nc(NCCc2c[nH]c3ccccc23)nc(-c2cncc(F)c2)n1 [I-136, 4-(5-Fluoro-3-pyridyl)-N-[2-(1H-indol-3-yl)ethyl]-6-isopropoxy-1,3,5-triazin-2-amine]
- pIC50 [2]: > 6.30

Compound: CC(C)c1cnn2c(NCCc3c[nH]c4c(F)cc(F)cc34)cc(-c3cncc(F)c3)nc12 [I-99, N-[2-(5,7-Difluoro-1H-indol-3-yl)ethyl]-5-(5-fluoro-3-pyridyl)-3-isopropyl-pyrazolo[1,5-a]pyrimidin-7-amine]
- pIC50 [2]: > 6.30

Compound: CC(C)c1cnn2c(N[C@H]3CCc4cn[nH]c4C3)cc(-c3cncc(F)c3)nc12 (single isomer, unassigned) [I-32a]
- pIC50 [2]: < 5.82

Compound: Cc1cnn2c(NC(Cc3c[nH]c4ccccc34)CN(C)C)cc(-c3cncc(F)c3)nc12 (centres unmarked) [I-176]
- pIC50 [2]: < 5.82

Compound: CC(C)Nc1cc(NCCc2c[nH]c3ccccc23)nc(-c2cncc(F)c2)n1 [I-20, 2-(5-Fluoro-3-pyridyl)-N6-[2-(1H-indol-3-yl)ethyl]-N4-isopropyl-pyrimidine-4,6-diamine]
- pIC50 [2]: > 6.30
